Laboratory results published in patent US8552058B2, “Application of L-n-butylphthalide in preventing and treating dementia” (CSPC Zhongqi Pharmaceutical Technology (Shijazhuang) Co., …, priority 2004, dated 2013).
Entries after “also recorded” stand apart in the source; their conditions may differ.

Columns and labels:
[1] = tested on: rats with permanent ligation of bilateral common carotid arteries (2-VO model); assay: Morris' water maze (training latency, platform exploration) in 2-VO hypoperfusion model; format: in vivo, Wistar rats; conditions: for effect on detention time in the target quadrant (platform exploration test) / improvement of latency / search strategy in water maze: 2-VO rats; for improvement of latency / search strategy in water maze: vs solvent control; for amelioration of impaired short-term memory and spatial orientation (overall conclusion): 2-VO rats with poor blood supply to brain, L-NBP at 10 mg/kg, 10 mg/kg
[2] = tested on: rats with continuous perfusion of Aβ (1-40) into lateral ventricle; assay: Morris' water maze and working memory test after continuous i.c.v. perfusion of Aβ (1-40); format: in vivo, Wistar rats; conditions: continuous perfusion of Aβ (1-40) into lateral ventricle, rats, Morris' water maze
Description: For Morris' Water Maze Automatic Monitor and experimental protocols, reference may be made to the experiments of learning and memory damage of rats induced by brain hypoperfusion.
Male Wistar rats, which were 10-weeks old and weighed approximately 280 grams, were used. One animal was placed in one cage, while the room temperature was kept at 23° C., with food and water freely accessible. Rats were anaesthetized with sodium pentobarbital (40 mg/kg), and were fixed to stereotaxic apparatus with the position of ventral decubitus. Head skin was cut open, a cannula for Aβ (1-40) perfusion was implanted into right ventricle. According to the stereotaxic profile of rat brain by Paxions and Watson, the implantation site was located 0.3 mm behind and 1.1 mm in the right side of anterior fontanelle, with the depth of 4.0 mm. The cannula was connected to a micro-osmotic pump. The pump was placed on the back of the rat. Aβ (1-40) was dissolved in 35% acetonitrile/0.1% trifluroacetic acid, and was continuously perfused intracerebroventricularly (i.c.v.) at 300 pmol/day, while only the solvent (35% acetonitrile/0.1% trifluroacetic acid) was perfused in the control group.
Rats were randomly classified into […] groups, with 10 animals per group. 1) the sham surgery group: only 35% acetonitrile/0.1% trifluroacetic acid+solvent was perfused into the ventricles of the rats; 2) the model group: Aβ (1-40)+solvent; 3) Aβ (1-40)+L-NBP 10 mg/kg group; 4) Aβ (1-40)+L-NBP 30 mg/kg group. Respective drug or solvent was drenched since the 2nd day after the surgery. The water maze experiment was performed on the 9-13 day after the surgery, while the platform exploration experiment was performed on the 13th day, and the working memory test was performed on the 14-16th days. Animals were decapitated to remove brains for biochemical assay on the 17th day. In all ethological tests, medicines were administered 40 minutes prior to the respective test.
The water maze training experiment was performed on the 9-13th day after icv Aβ (1-40), and the platform exploration experiment was performed on the 13 day after that. The working memory test was performed on the 14-16th day after icv Aβ (1-40) (see the figure above), which investigated the ability of rapid learning and spatial memory in animals when the platform and quadrant were changed, based on the fact that animals had memorized in some extent after training and platform exploration experiment. Experimental procedure was similar to the standard water maze training experiment except that the platform's location was changed every day. The experiment was conducted five times every day, allowing the rats to start swimming from five water-entry sites respectively. […] In the following 4 experiments, the location of the platform was kept constant, yet the water entry sites were within different quadrants. The latency of working memory was calculated by averaging those of the 2-5th experiments, and the ability of working memory of each rat was calculated by averaging the experimental values in 3 days.
All results were expressed in mean±standard error. Comparison of latencies between groups in water maze experiment was performed using two-factor analysis of variance in replicate. Comparison between groups was performed using post hoc LSD or Turkey test. Platform exploration test in water maze experiment, working memory test and biochemical assay were analyzed using one-factor analysis of variance. A difference was considered significant when p<0.05.

[3] = tested on: rats with coriamyrtin-induced impaired learning and memory; conditions: Shuren Yu et al. 1988, cited from earlier work

| SMILES | effect on detention time in the target quadrant (platform exploration test) ([1]; 10 mg/kg oral) | improvement of latency / search strategy in water maze ([1]; 10 mg/kg oral) | effect on detention time in the target quadrant (platform exploration test) ([1]; 30 mg/kg oral) | improvement of latency / search strategy in water maze ([1]; 30 mg/kg oral) | amelioration of impaired short-term memory and spatial orientation (overall conclusion) ([1]; listed as racemic (DL-)) | amelioration of impaired short-term memory and spatial orientation (overall conclusion) ([1]; listed as racemic butylphthalide) | amelioration of impaired short-term memory and stereotaxic memory (overall conclusion) [2] | improvement of impaired learning and memory induced by coriamyrtin [3] | protection of hippocampal cells ([3]; coriamyrtin) | amelioration of impaired short-term memory and spatial orientation (overall conclusion) [1] | amelioration of impaired short-term memory and spatial orientation (overall conclusion) ([1]; listed as D-butylphthalide) |
| --- | --- | --- | --- | --- | --- | --- | --- | --- | --- | --- | --- |
| CCCCC1OC(=O)c2ccccc21 (racemic) [DL-NBP, 3-n-butylphthalide] | no effect | no significant effect of improvement; also recorded: no obvious improved effect | no effect | no significant effect of improvement; also recorded: no obvious improved effect | could not | neither racemic butylphthalide nor D-butylphthalide were effective | neither D-NBP nor DL-NBP showed similar effects | could be used to improve the impaired learning and memory | protect hippocampal cells | – | – |
| CCCC[C@H]1OC(=O)c2ccccc21 [D-NBP, D-n-butylphthalide] | – | – | – | no significant effect of improvement; also recorded: no obvious improved effect | – | – | neither D-NBP nor DL-NBP showed similar effects | – | – | could not | neither racemic butylphthalide nor D-butylphthalide were effective |
